In patent US6479435B1, “Diaryl ethers and processes for their preparation and herbicidal and desiccant compositions containing them” (ISK Americas Incorporated, priority 1997, dated 2002):

Assays:
Assay type in all cases: in vivo
[1] = system: common ragweed (Ambrosia artemisiifolia L., AMBEL); assay: Pre-emerge greenhouse herbicide test, phytotoxicity rating; details: 14 days after application, rating scale 0-100
Procedure, shortened: (§1)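 Visual 0–100 injury rating (100 = all plants dead) taken 14 days after treatment. Rates of 125–1000 g ai/ha in acetone, 187 l/ha, were sprayed onto soil one day post-sowing; pots were surface-watered to incorporate, then bottom-watered.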

[2] = system: lambsquarters (Chenopodium album, CHEAL); assay: as above; details: 14 days after application, rating scale 0-100
Procedure, shortened: as §1

[3] = system: sicklepod (Cassia obtusifolia, CASOB); assay: as above; details: 14 days after application, rating scale 0-100
Procedure, shortened: as §1

[4] = system: velvetleaf (Abutilon theophrasti, ABUTH); assay: as above; details: 14 days after application, rating scale 0-100
Procedure, shortened: as §1

[5] = system: redroot pigweed (Amaranthus retroflexus, AMARE); assay: as above; details: 14 days after application, rating scale 0-100
Procedure, shortened: as §1

[6] = system: green foxtail (Setaria viridis, SETVI); assay: as above; details: 14 days after application, rating scale 0-100
Procedure, shortened: as §1

[7] = system: large crabgrass (Digitaria sanguinalis, DIGSA); assay: as above; details: 14 days after application, rating scale 0-100
Procedure, shortened: as §1

[8] = system: barnyardgrass (Echinochloa crusgalli, ECHCG); assay: as above; details: 14 days after application, rating scale 0-100
Procedure, shortened: as §1

[9] = system: Johnsongrass (Sorghum halepense, SORHA); assay: as above; details: 14 days after application, rating scale 0-100
Procedure, shortened: as §1

[10] = system: ivyleaf morningglory (Ipomoea hederacea, IPOHE); assay: as above; details: 14 days after application, rating scale 0-100
Procedure, shortened: as §1

[11] = system: soybean (Glycine max L., var. Pella 86, SOY); assay: Pre-emerge greenhouse test, crop damage rating; details: 14 days after application, rating scale 0-100
Procedure, shortened: as §1

[12] = system: lambsquarters (Chenopodium album, CHEAL); assay: Post-emerge greenhouse herbicide test, phytotoxicity rating; details: 14 days after application
Procedure, shortened: (§2)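 Scores use a 0 (no damage) to 100 (complete kill) scale, taken 14 days after a foliar spray. Acetone solutions with 0.25% v/v non-ionic surfactant were applied by track sprayer at 187 l/ha and 63-1000 g ai/ha to bottom-watered 2-3 leaf plants.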

[13] = system: sicklepod (Cassia obtusifolia, CASOB); assay: as above; details: 14 days after application
Procedure, shortened: as §2

[14] = system: velvetleaf (Abutilon theophrasti, ABUTH); assay: as above; details: 14 days after application
Procedure, shortened: as §2

[15] = system: redroot pigweed (Amaranthus retroflexus, AMARE); assay: as above; details: 14 days after application
Procedure, shortened: as §2

[16] = system: green foxtail (Setaria viridis, SETVI); assay: as above; details: 14 days after application
Procedure, shortened: as §2

[17] = system: large crabgrass (Digitaria sanguinalis, DIGSA); assay: as above; details: 14 days after application
Procedure, shortened: as §2

[18] = system: barnyardgrass (Echinochloa crusgalli, ECHCG); assay: as above; details: 14 days after application
Procedure, shortened: as §2

[19] = system: Johnsongrass (Sorghum halepense, SORHA); assay: as above; details: 14 days after application
Procedure, shortened: as §2

[20] = system: ivyleaf morningglory (Ipomoea hederacea, IPOHE); assay: as above; details: 14 days after application
Procedure, shortened: as §2

[21] = system: soybean (Glycine max L., var. Pella 86, SOY); assay: Post-emerge greenhouse test, crop damage rating; details: 14 days after application
Procedure, shortened: as §2

[22] = system: upland rice (Oryza sp., var.Tebonnet, RICE); assay: Pre-emerge greenhouse test, crop damage rating; details: 14 days after application, rating scale 0-100
Procedure, shortened: as §1

[23] = system: field corn (Zea mays L., var. Dekalb 535, CORN); assay: Pre-emerge greenhouse test, crop damage rating; details: 14 days after application, rating scale 0-100
Procedure, shortened: as §1

[24] = system: upland rice (Oryza sp., var.Tebonnet, RICE); assay: Post-emerge greenhouse test, crop damage rating; details: 14 days after application
Procedure, shortened: as §2

[25] = system: field corn (Zea mays L., var. Dekalb 535, CORN); assay: Post-emerge greenhouse test, crop damage rating; details: 14 days after application
Procedure, shortened: as §2

[26] = system: common ragweed (Ambrosia artemisiifolia L., AMBEL); assay: Post-emerge greenhouse herbicide test, phytotoxicity rating; details: 14 days after application
Procedure, shortened: as §2

## Nc1ccc(Oc2cc(-n3c(=O)n4n(c3=S)CCCC4)c(F)cc2Cl)c(C(F)(F)F)c1 [Compound 8-15]
[1]; 125 g ai/ha
  phytotoxicity rating AMBEL: 0
[1]; 500 g ai/ha
  phytotoxicity rating AMBEL: 0
[2]; 125 g ai/ha
  phytotoxicity rating CHEAL: 0
[2]; 500 g ai/ha
  phytotoxicity rating CHEAL: 100
[3]; 125 g ai/ha
  phytotoxicity rating CASOB: 0
[3]; 500 g ai/ha
  phytotoxicity rating CASOB: 0
[4]; 125 g ai/ha
  phytotoxicity rating ABUTH: 0
[4]; 500 g ai/ha
  phytotoxicity rating ABUTH: 50
[5]; 125 g ai/ha
  phytotoxicity rating AMARE: 0
[5]; 500 g ai/ha
  phytotoxicity rating AMARE: 40
[6]; 125 g ai/ha
  phytotoxicity rating SETVI: 0
[6]; 500 g ai/ha
  phytotoxicity rating SETVI: 0
[7]; 125 g ai/ha
  phytotoxicity rating DIGSA: 0
[7]; 500 g ai/ha
  phytotoxicity rating DIGSA: 0
[8]; 125 g ai/ha
  phytotoxicity rating ECHCG: 0
[8]; 500 g ai/ha
  phytotoxicity rating ECHCG: 0
[9]; 125 g ai/ha
  phytotoxicity rating SORHA: 0
[9]; 500 g ai/ha
  phytotoxicity rating SORHA: 0
[10]; 125 g ai/ha
  phytotoxicity rating IPOHE: 0
[10]; 500 g ai/ha
  phytotoxicity rating IPOHE: 0
[11]; 125 g ai/ha
  crop damage rating SOY: 0
[11]; 500 g ai/ha
  crop damage rating SOY: 0
[12]; 63 g al/ha
  CHEAL phytotoxicity rating (0-100): 70
[12]; 500 g al/ha
  CHEAL phytotoxicity rating (0-100): 90
[13]; 63 g al/ha
  CASOB phytotoxicity rating (0-100): 0
[13]; 500 g al/ha
  CASOB phytotoxicity rating (0-100): 50
[14]; 63 g al/ha
  ABUTH phytotoxicity rating (0-100): 50
[14]; 500 g al/ha
  ABUTH phytotoxicity rating (0-100): 80
[15]; 63 g al/ha
  AMARE phytotoxicity rating (0-100): 40
[15]; 500 g al/ha
  AMARE phytotoxicity rating (0-100): 70
[16]; 63 g al/ha
  SETVI phytotoxicity rating (0-100): 0
[16]; 500 g al/ha
  SETVI phytotoxicity rating (0-100): 0
[17]; 63 g al/ha
  DIGSA phytotoxicity rating (0-100): 0
[17]; 500 g al/ha
  DIGSA phytotoxicity rating (0-100): 0
[18]; 63 g al/ha
  ECHCG phytotoxicity rating (0-100): 0
[18]; 500 g al/ha
  ECHCG phytotoxicity rating (0-100): 0
[19]; 63 g al/ha
  SORHA phytotoxicity rating (0-100): 0
[19]; 500 g al/ha
  SORHA phytotoxicity rating (0-100): 0
[20]; 63 g al/ha
  IPOHE phytotoxicity rating (0-100): 40
[20]; 500 g al/ha
  IPOHE phytotoxicity rating (0-100): 80
[21]; 63 g al/ha
  SOY crop damage rating (0-100): 20
[21]; 500 g al/ha
  SOY crop damage rating (0-100): 50
[22]; 125 g ai/ha
  crop damage rating RICE: 0
[22]; 500 g ai/ha
  crop damage rating RICE: 0
[23]; 125 g ai/ha
  crop damage rating CORN: 0
[23]; 500 g ai/ha
  crop damage rating CORN: 0
[24]; 63 g al/ha
  RICE crop damage rating (0-100): 0
[24]; 500 g al/ha
  RICE crop damage rating (0-100): 0
[25]; 63 g al/ha
  CORN crop damage rating (0-100): 0
[25]; 500 g al/ha
  CORN crop damage rating (0-100): 0
[26]; 63 g al/ha
  AMBEL phytotoxicity rating (0-100): 30
[26]; 500 g al/ha
  AMBEL phytotoxicity rating (0-100): 70
